{
  "source": "patent US4088778A",
  "about": "“Method for the treatment of hypertension” (priority 1975, dated 1978)",
  "type_in_all_cases": "in vivo, human patients",
  "key": {"[1]": {"experiment": "Clinical Experiment II, double blind: blood pressure", "details": "for Maximum Pressure, Average Value, all patients / Maximum Pressure, Average Value, patients of hypertension / Maximum Pressure, Average Value, no hypotensive agent in combination with TN / Maximum Pressure, Average Value, hypotensive agent administered in combination with TN: in mmHg (unit assumed)", "description": "Results of the clinical experiment conducted according to the double blind method in a different hospital will now be described.\n(§1) 75 patients of hypertension or arteriosclerosis having subjective symptoms were tested. Some of them suffered from complications such as ischemia heart disease and cerebral thrombosis. They are detailed in Table 11.\n(§2) Two capsules were administered at one time, and the administration was conducted 3 times per day after eating. The duration of the continuous administration was 4 weeks. Combined use of drugs having the same functions as those of TN (vitamin E drugs, nicotinic acid, its derivatives and peripheral vasolidators) and minor tranquilizers was prohibited.\n(a) Results of Blood Pressure Test: Variations of the blood pressure in all the patients and in the patients of hypertension alone are shown in Tables 12 and 13.\nThe change of the blood pressure in the patients of hypertension to whom a hypotensive agent was administrated in combination with TN is shown in Table 14, and the change of the blood pressure in the patients to whom no hypotensive agent was administrated in combination with TN is shown in Table 15.\nIn each of the foregoing Tables, N indicates the number of the patients, and S.D. denotes the standard deviation."}, "[2]": {"experiment": "Clinical Test I, double blind: general improvement", "details": "for General improvement: Not Changed / General improvement: Partial Improvement / General improvement: Remarkable Improvement / General improvement: Slight Improvement / General improvement: Worsened: number of patients", "description": "(§3) Two capsules were orally administered at one time, and the administration was conducted three times a day after eating. The period of the administration was principally 4 weeks or 6 weeks. During this period, the administration was performed continuously. Combined administration of drugs having the same function as that of TN (vitamin E drugs, nicotinic acid, its derivatives and peripheral vasolidators) was prohibited.\nThe general improvement was evaluated by the attendant physician based on subjective symptoms and test results according to the following scale:\ni: remarkable improvement\nWhen 2, 4 or 6 weeks had passed from the start of the administration, the improvement was evaluated based on the symptoms before the administration."}, "[3]": {"experiment": "Clinical Experiment II: side effects", "description": "as §1, §2"}, "[4]": {"experiment": "Clinical Test I, double blind: blood pressure", "details": "for Maximum Blood Pressure in Hypertensives, Average Value ± S.D. / Maximum Blood Pressure, Average Value±S.D.: in mmHg (unit assumed)", "description": "94 patients of hypertension or arteriosclerosis having subjective symptoms were tested, and some of them suffered from complications such as ischemia heart disease, hypertensive heart disease and encephalomalacia.\nAs the active drug, there were employed hard capsules, each containing 100 mg of TN.\nas §3, with “prohibited. Drugs which had been continuously administered since before the start of the administration of TN were similarly administered according to the disease case and symptom, and change of the prescription during the test was avoided.” for “prohibited.”\nWith respect to data collected separately in the TN group and the P group, the significant difference was examined according to the statistical method."}, "[5]": {"details": "conclusion of both clinical experiments"}, "[6]": {"details": "2 weeks, N 34, TN 200 mg three times a day"}, "[7]": {"details": "4 weeks, N 38, TN 200 mg three times a day"}, "[8]": {"details": "6 weeks, N 20, TN 200 mg three times a day"}, "[9]": {"details": "before administration, N 43, all patients (Table 6)"}},
  "data": [
    {"smiles": "Cc1c(C)c2c(c(C)c1OC(=O)c1cccnc1)CCC(C)(CCCC(C)CCCC(C)CCCC(C)C)O2", "note": "(racemic) [TN, dl-α-tocopheryl nicotinate]", "values": [
      {"measurement": "hypotensive effect as compared with the P group", "setting": "[1]; Tables 12 to 15, hypertension alone significant at level lower than 5%", "result": "the hypotensive effect was attained in the TN administrated group as compared with the P group"},
      {"measurement": "Maximum Pressure, Average Value, all patients", "setting": "[1]; after administration (200 mg TN 3 times per day, 4 weeks), N 35, S.D. ±23.65", "result": 141.40},
      {"measurement": "Minimum Pressure, Average Value, patients of hypertension", "setting": "[1]; after administration (4 weeks), N 22, S.D. ±13.08", "result": 87.45},
      {"measurement": "Maximum Pressure, Average Value, patients of hypertension", "setting": "[1]; after administration (4 weeks), N 22, S.D. ±20.69, P < 0.05", "result": 148.59},
      {"measurement": "Minimum Pressure, Average Value, all patients", "setting": "[1]; after administration (4 weeks), N 35, S.D. ±13.64", "result": 81.89},
      {"measurement": "Minimum Pressure, Average Value, no hypotensive agent in combination with TN", "setting": "[1]; after administration, N 8, S.D. ±13.34", "result": 87.50},
      {"measurement": "Maximum Pressure, Average Value, no hypotensive agent in combination with TN", "setting": "[1]; after administration, N 8, S.D. ±19.95, P < 0.1", "result": 146.13},
      {"measurement": "Minimum Pressure, Average Value, hypotensive agent administered in combination with TN", "setting": "[1]; after administration, N 14, S.D. ±13.44", "result": 87.43},
      {"measurement": "Maximum Pressure, Average Value, hypotensive agent administered in combination with TN", "setting": "[1]; after administration, N 14, S.D. ±21.71", "result": 150.00},
      {"measurement": "Minimum Pressure, Average Value, no hypotensive agent in combination with TN", "setting": "[1]; before administration, N 8, S.D. ±16.40", "result": 87.75},
      {"measurement": "Maximum Pressure, Average Value, no hypotensive agent in combination with TN", "setting": "[1]; before administration, N 8, S.D. ±22.60", "result": 161.50},
      {"measurement": "Minimum Pressure, Average Value, hypotensive agent administered in combination with TN", "setting": "[1]; before administration, N 14, S.D. ±10.75", "result": 89.71},
      {"measurement": "Maximum Pressure, Average Value, hypotensive agent administered in combination with TN", "setting": "[1]; before administration, N 14, S.D. ±17.29", "result": 159.29},
      {"measurement": "Minimum Pressure, Average Value, patients of hypertension", "setting": "[1]; before administration, N 22, S.D. ±12.74", "result": 89.00},
      {"measurement": "Maximum Pressure, Average Value, patients of hypertension", "setting": "[1]; before administration, N 22, S.D. ±18.88", "result": 160.09},
      {"measurement": "Minimum Pressure, Average Value, all patients", "setting": "[1]; before administration, N 38, S.D. ±14.78", "result": 81.37},
      {"measurement": "Maximum Pressure, Average Value, all patients", "setting": "[1]; before administration, N 38, S.D. ±25.14", "result": 144.63},
      {"measurement": "efficacy and safety conclusion", "setting": "[1]; [5]", "result": "very effective and safe hypotensive agent"},
      {"measurement": "hypotensive effect on patients of hypertension versus P group", "setting": "[1]; [5]", "result": "higher in the TN administered group than in the P group"},
      {"measurement": "effect durability", "setting": "[1]; general conclusion", "result": "high effect durability"},
      {"measurement": "general improvement ratio over time", "setting": "[2]; 2, 4, 6 weeks", "result": "the improvement ratio was increased every two weeks"},
      {"measurement": "General improvement: Improvement Ratio", "setting": "[2]; 2 weeks, total 38, P group 68.6 %", "result": 73.7, "unit": "%"},
      {"measurement": "significance of general improvement versus P group", "setting": "[2]; 4 to 6 weeks", "result": "significantly better results were obtained in the TN group than in the P group"},
      {"measurement": "General improvement: Improvement Ratio", "setting": "[2]; 4 weeks, total 39, P group 61.1 %, P = 0.0127", "result": 87.2, "unit": "%"},
      {"measurement": "General improvement: Improvement Ratio", "setting": "[2]; 6 weeks, total 21, P group 63.6 %, P = 0.0094", "result": 95.2, "unit": "%"},
      {"measurement": "General improvement: Not Changed", "setting": "[2]; 2 weeks, total 38", "result": 9},
      {"measurement": "General improvement: Partial Improvement", "setting": "[2]; 2 weeks, total 38", "result": 13},
      {"measurement": "General improvement: Remarkable Improvement", "setting": "[2]; 2 weeks, total 38", "result": 6},
      {"measurement": "General improvement: Slight Improvement", "setting": "[2]; 2 weeks, total 38", "result": 9},
      {"measurement": "General improvement: Worsened", "setting": "[2]; 2 weeks, total 38", "result": 1},
      {"measurement": "General improvement: Not Changed", "setting": "[2]; 4 weeks, total 39", "result": 5},
      {"measurement": "General improvement: Partial Improvement", "setting": "[2]; 4 weeks, total 39", "result": 14},
      {"measurement": "General improvement: Remarkable Improvement", "setting": "[2]; 4 weeks, total 39", "result": 6},
      {"measurement": "General improvement: Slight Improvement", "setting": "[2]; 4 weeks, total 39", "result": 14},
      {"measurement": "General improvement: Worsened", "setting": "[2]; 4 weeks, total 39", "result": 0},
      {"measurement": "General improvement: Not Changed", "setting": "[2]; 6 weeks, total 21", "result": 1},
      {"measurement": "General improvement: Partial Improvement", "setting": "[2]; 6 weeks, total 21", "result": 7},
      {"measurement": "General improvement: Remarkable Improvement", "setting": "[2]; 6 weeks, total 21", "result": 8},
      {"measurement": "General improvement: Slight Improvement", "setting": "[2]; 6 weeks, total 21", "result": 5},
      {"measurement": "General improvement: Worsened", "setting": "[2]; 6 weeks, total 21", "result": 0},
      {"measurement": "side effect: constipation", "setting": "[3]; among 41 patients", "result": "another patient complained of constipation"},
      {"measurement": "side effect: light lack of appetite", "setting": "[3]; among 41 patients", "result": "one"},
      {"measurement": "side effects in other patients", "setting": "[3]; among 41 patients", "result": "no side effect was observed"},
      {"measurement": "side effects versus conventional hypotensive agents", "setting": "[3]; [5]", "result": "much more reduced in TN than in conventional hypotensive agents"},
      {"measurement": "other various blood tests and the like: undesirable side effects", "setting": "[3]; human, in vivo", "result": "None of results of other various blood tests and the like were suggestive of undesirable, side effects"},
      {"measurement": "maximum blood pressure in patients of hypertension", "setting": "[4]; 2, 4 or 6 weeks' administration", "result": "lowered by 2, 4 or 6 weeks' administration below the maximum blood pressure before the start of the administration"},
      {"measurement": "Maximum Blood Pressure in Hypertensives, Average Value ± S.D.", "setting": "[4]; 2 weeks, N 28, P < 0.05 vs before", "result": "143.8 ± 21.0"},
      {"measurement": "Minimum Blood Pressure, Average Value±S.D.", "setting": "[4]; [6]", "result": "82.4±11.4"},
      {"measurement": "Maximum Blood Pressure, Average Value±S.D.", "setting": "[4]; [6]", "result": "139.7±21.1"},
      {"measurement": "Maximum Blood Pressure in Hypertensives, Average Value ± S.D.", "setting": "[4]; 4 weeks, N 29, P < 0.02 vs before", "result": "143.1 ± 21.1"},
      {"measurement": "Minimum Blood Pressure, Average Value±S.D.", "setting": "[4]; [7]", "result": "80.6±10.3"},
      {"measurement": "Maximum Blood Pressure, Average Value±S.D.", "setting": "[4]; [7]", "result": "140.0±20.3"},
      {"measurement": "Maximum Blood Pressure in Hypertensives, Average Value ± S.D.", "setting": "[4]; 6 weeks, N 13, P < 0.05 vs before", "result": "139.2 ± 16.8"},
      {"measurement": "Minimum Blood Pressure, Average Value±S.D.", "setting": "[4]; [8]", "result": "79.1±7.0"},
      {"measurement": "Maximum Blood Pressure, Average Value±S.D.", "setting": "[4]; [8]", "result": "138.1±15.2"},
      {"measurement": "patients in whom administration was interrupted", "setting": "[4]; TN 200 mg three times a day, 4 or 6 weeks, P group 3 patients", "result": 2, "unit": "patients"},
      {"measurement": "Minimum Blood Pressure, Average Value±S.D.", "setting": "[4]; [9]", "result": "84.4±13.7"},
      {"measurement": "Maximum Blood Pressure, Average Value±S.D.", "setting": "[4]; [9]", "result": "147.6±23.6"},
      {"measurement": "Maximum Blood Pressure in Hypertensives, Average Value ± S.D.", "setting": "[4]; before administration, same 13 patients as 6 weeks", "result": "151.2 ± 28.9"},
      {"measurement": "Maximum Blood Pressure in Hypertensives, Average Value ± S.D.", "setting": "[4]; before administration, same 28 patients as 2 weeks", "result": "151.0 ± 22.1"},
      {"measurement": "Maximum Blood Pressure in Hypertensives, Average Value ± S.D.", "setting": "[4]; before administration, same 29 patients as 4 weeks", "result": "154.6 ± 24.8"}
    ]}
  ]
}
